# Tests used:
# Format in all cases: biochemical
# Conditions in all cases: Table 7
# [1] = system: Rabbit Skeletal myofibrils (rabbit psoas muscle); assay: Myofibril ATPase assay (PK/LDH NADH-coupled), skeletal myofibrils
# How it was run: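 Rabbit psoas myofibrils in pCa (PIPES/CaCl2/EGTA, pH 7.0) buffer; ADP coupled via PK/LDH to NADH loss, read at 340 nm every 1.5–2 min for 75 min. Slopes normalized to vehicle (100%) and fit to 4-parameter logistic for EC25, plus EC50 for inhibitors.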
# [2] = molecular target: T1, Porcine Ventricle myofibrils (left ventricle of Yucatan minipigs) (Sus scrofa, UniProt P79293); assay: Myofibril ATPase assay (PK/LDH NADH-coupled), ventricle myofibrils
# T1 construct: Myofibrils from porcine cardiac muscle was isolated from the left ventricle of Yucatan minipigs; tissue Exemplar Genetics; host or cells: left ventricle of Yucatan minipigs
# How it was run: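 Yucatan minipig left-ventricle myofibrils; ATPase measured by PK/LDH-coupled NADH loss at 340 nm, read every 1.5-2 min for 75 min. Slopes normalized to vehicle (100%) and fit to 4-parameter logistic model; EC25 and, for inhibitors, EC50 calculated.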
# Porcine Atria myofibrils = assay: Myofibril ATPase assay (PK/LDH NADH-coupled), atria myofibrils
# How it was run: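 Porcine atrial myofibril ATPase followed via PK/LDH-coupled NADH depletion, absorbance at 340 nm read every 1.5-2 min over 75 min. Slopes (mAU/min) normalized to vehicle as 100% and fit to a 4-parameter logistic; EC25% derived, plus EC50% for inhibitors.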
# T1 sequence (P79293 whole entry): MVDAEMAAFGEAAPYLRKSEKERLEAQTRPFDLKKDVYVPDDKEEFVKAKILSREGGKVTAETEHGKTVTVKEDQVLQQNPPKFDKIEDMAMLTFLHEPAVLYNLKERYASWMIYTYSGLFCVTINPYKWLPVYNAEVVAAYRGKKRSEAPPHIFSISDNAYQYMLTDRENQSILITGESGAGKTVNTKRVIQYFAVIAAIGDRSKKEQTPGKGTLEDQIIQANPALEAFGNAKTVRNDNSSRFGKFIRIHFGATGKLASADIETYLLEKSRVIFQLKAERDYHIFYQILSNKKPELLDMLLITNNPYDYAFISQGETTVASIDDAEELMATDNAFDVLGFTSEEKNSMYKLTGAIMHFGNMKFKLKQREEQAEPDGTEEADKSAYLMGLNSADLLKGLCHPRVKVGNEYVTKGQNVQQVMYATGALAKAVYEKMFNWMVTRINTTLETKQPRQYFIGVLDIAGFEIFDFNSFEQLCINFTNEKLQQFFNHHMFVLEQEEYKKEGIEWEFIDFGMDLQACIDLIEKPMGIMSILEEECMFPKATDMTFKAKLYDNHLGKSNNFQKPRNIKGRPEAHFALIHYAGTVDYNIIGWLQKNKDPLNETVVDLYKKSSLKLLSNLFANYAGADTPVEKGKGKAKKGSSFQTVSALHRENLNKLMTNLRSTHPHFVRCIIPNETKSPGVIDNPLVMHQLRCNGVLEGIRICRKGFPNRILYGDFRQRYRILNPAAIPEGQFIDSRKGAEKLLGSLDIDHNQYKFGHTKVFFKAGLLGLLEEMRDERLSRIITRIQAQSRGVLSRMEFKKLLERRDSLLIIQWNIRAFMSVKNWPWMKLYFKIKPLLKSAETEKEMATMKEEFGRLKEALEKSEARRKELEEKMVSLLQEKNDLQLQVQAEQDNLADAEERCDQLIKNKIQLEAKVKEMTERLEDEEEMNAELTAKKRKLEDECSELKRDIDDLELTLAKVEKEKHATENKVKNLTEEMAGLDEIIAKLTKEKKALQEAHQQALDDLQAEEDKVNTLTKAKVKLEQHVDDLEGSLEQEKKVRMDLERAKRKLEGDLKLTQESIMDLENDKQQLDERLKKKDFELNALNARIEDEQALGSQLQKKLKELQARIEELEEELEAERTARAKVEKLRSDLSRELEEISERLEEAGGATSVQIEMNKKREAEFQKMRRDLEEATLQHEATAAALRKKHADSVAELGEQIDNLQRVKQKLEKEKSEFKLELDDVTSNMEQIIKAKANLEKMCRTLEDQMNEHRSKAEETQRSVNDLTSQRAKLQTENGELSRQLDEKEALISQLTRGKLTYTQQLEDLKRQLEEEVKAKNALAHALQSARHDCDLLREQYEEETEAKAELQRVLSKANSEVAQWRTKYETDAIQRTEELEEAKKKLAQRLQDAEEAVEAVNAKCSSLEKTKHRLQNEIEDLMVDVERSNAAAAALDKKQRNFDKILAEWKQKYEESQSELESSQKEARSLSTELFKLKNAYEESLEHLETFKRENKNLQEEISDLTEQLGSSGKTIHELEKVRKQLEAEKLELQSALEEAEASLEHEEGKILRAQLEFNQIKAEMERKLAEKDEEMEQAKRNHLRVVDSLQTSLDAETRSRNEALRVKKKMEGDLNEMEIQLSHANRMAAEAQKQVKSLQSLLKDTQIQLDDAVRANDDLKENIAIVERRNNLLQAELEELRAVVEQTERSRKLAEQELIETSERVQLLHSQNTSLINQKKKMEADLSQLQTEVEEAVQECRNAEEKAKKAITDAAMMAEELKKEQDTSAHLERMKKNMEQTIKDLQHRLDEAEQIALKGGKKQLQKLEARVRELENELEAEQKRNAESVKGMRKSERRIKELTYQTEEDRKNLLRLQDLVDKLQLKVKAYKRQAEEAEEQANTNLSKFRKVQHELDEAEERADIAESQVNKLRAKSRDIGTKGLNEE
Rabbit Psoas IC25 [1],Porcine Ventricle IC25 [2],Porcine Atria IC25 (Porcine Atria myofibrils),SMILES
100 µM,100 µM,100.00 µM,C[C@@H](NC(=O)CN1C(=O)Nc2cccnc2C12COC2)c1ncc(F)cc1F [Compound N29]
5.318 µM,100 µM,35.72 µM,C[C@H](NC(=O)CN1C(=O)Nc2cccnc2C12COC2)c1ncc(F)cc1F [Compound N30]
5.343 µM,100 µM,60.44 µM,C[C@@H](NC(=O)CN1Cc2c(C#N)cncc2NC1=O)c1ncc(F)cc1F [Compound N38]
1.979 µM,51.8 µM,9.59 µM,C[C@H](NC(=O)CN1Cc2c(C#N)cncc2NC1=O)c1ncc(F)cc1F [Compound N39]
0.2942 µM,6.077 µM,0.67 µM,C[C@@H](NC(=O)CN1C(=O)Nc2cccnc2C12CC2)c1ncc(F)cc1F [Compound N47]
100 µM,100 µM,100.00 µM,C[C@H](NC(=O)CN1C(=O)Nc2cccnc2C12CC2)c1ncc(F)cc1F [Compound N48]
100 µM,100 µM,100.00 µM,O=C(CN1Cc2c(ccnc2C(F)(F)F)NC1=O)N[C@H](CO)c1ncc(F)cc1F [Compound N49]
2.278 µM,100 µM,9.91 µM,O=C(CN1Cc2c(ccnc2C(F)(F)F)NC1=O)N[C@@H](CO)c1ncc(F)cc1F [Compound N50]
100 µM,100 µM,100.00 µM,CC(NC(=O)CN1Cc2c(ccnc2C2CC2(F)F)NC1=O)c1ncc(F)cc1F (stereo not drawn) [Compound N51]
15.28 µM,100 µM,98.42 µM,Cc1c(F)cnc2c1CN(CC(=O)N[C@H](C)c1ncc(F)cc1F)C(=O)N2 [Compound N52]
100 µM,100 µM,100.00 µM,Cc1c(F)cnc2c1CN(CC(=O)N[C@@H](C)c1ncc(F)cc1F)C(=O)N2 [Compound N53]
86.07 µM,100 µM,100.00 µM,"C[C@H](NC(=O)CN1Cc2c(Cl)cncc2NC1=O)c1ccc(F)cc1F [Compound N56, 2-{5-Chloro-2-oxo-1H,4H-pyrido[3,4-d]pyrimidin-3-yl}-N-[(1S)-1-(2,4-difluorophenyl)ethyl]acetamide]"
100 µM,100 µM,100.00 µM,C[C@@H](NC(=O)CN1Cc2nc(C#N)ccc2NC1=O)c1ncc(F)cc1F [Compound N58]
100 µM,100 µM,6.80 µM,C[C@H](NC(=O)CN1Cc2nc(C#N)ccc2NC1=O)c1ncc(F)cc1F [Compound N59]
100 µM,100 µM,100.00 µM,C[C@@H](NC(=O)CN1Cc2c(ccnc2C#N)NC1=O)c1ncc(F)cc1F [Compound N61]
0.1508 µM,5.161 µM,0.97 µM,C[C@H](NC(=O)CN1Cc2c(ccnc2C#N)NC1=O)c1ncc(F)cc1F [Compound N62]
100 µM,100 µM,100.00 µM,C[C@@H](NC(=O)CN1Cc2c(F)cncc2NC1=O)c1ncc(F)cc1F [Compound N63]
16.71 µM,100 µM,25.37 µM,C[C@H](NC(=O)CN1Cc2c(F)cncc2NC1=O)c1ncc(F)cc1F [Compound N64]
100 µM,100 µM,100.00 µM,CC(NC(=O)CN1Cc2c(ccnc2C(N)=O)NC1=O)c1ncc(F)cc1F (stereo not drawn) [Compound N65]
0.3112 µM,100 µM,29.35 µM,C[C@H](NC(=O)CN1Cc2c(ccnc2OC2COC2)NC1=O)c1ccc(F)cc1F [Compound N66]
100 µM,100 µM,100.00 µM,COc1ccc2c(n1)C1(CC1)N(CC(=O)N[C@H](C)c1ncc(F)cc1F)C(=O)N2 [Compound N67]
0.0442 µM,1.833 µM,0.13 µM,COc1ccc2c(n1)C1(CC1)N(CC(=O)N[C@@H](C)c1ncc(F)cc1F)C(=O)N2 [Compound N68]
100 µM,100 µM,100.00 µM,C[C@@H](NC(=O)CN1Cc2cc(F)cnc2NC1=O)c1ncc(F)cc1F [Compound N69]
100 µM,100 µM,100.00 µM,C[C@H](NC(=O)CN1Cc2cc(F)cnc2NC1=O)c1ncc(F)cc1F [Compound N70]

# Second part, the compound before the results:
SMILES,Rabbit Psoas IC25 [1],Porcine Ventricle IC25 [2],Porcine Atria IC25 (Porcine Atria myofibrils)
O=C(CN1C(=O)Nc2cccnc2C12CC2)N[C@H](CO)c1ccc(F)cc1F [Compound N27],100 µM,100 µM,100.00 µM
O=C(CN1C(=O)Nc2cccnc2C12CC2)N[C@@H](CO)c1ccc(F)cc1F [Compound N28],0.2814 µM,6.602 µM,0.41 µM
N#Cc1ccc([C@@H](CO)NC(=O)CN2Cc3c(ccnc3C#N)NC2=O)c(F)c1 [Compound N31],0.0533 µM,1.237 µM,0.38 µM
N#Cc1ccc([C@H](CO)NC(=O)CN2Cc3c(ccnc3C#N)NC2=O)c(F)c1 [Compound N32],2.872 µM,100 µM,100.00 µM
O=C(CN1C(=O)Nc2cccnc2C12CC2)N[C@H]1COc2cc(F)cc(F)c21 [Compound N34],1.366 µM,100 µM,8.44 µM
C[C@H](NC(=O)CN1C(=O)Nc2cccnc2C12COC2)c1ccc(F)cc1F [Compound N35],0.9847 µM,100 µM,6.39 µM
N#Cc1ccc([C@@H](CO)NC(=O)CN2C(=O)Nc3cccnc3C23CC3)c(F)c1 [Compound N36],1.604 µM,25.16 µM,8.01 µM
N#Cc1ccc([C@H](CO)NC(=O)CN2C(=O)Nc3cccnc3C23CC3)c(F)c1 [Compound N37],0.0599 µM,4.582 µM,0.20 µM
N#Cc1nccc2c1CN(CC(=O)N[C@H](CO)c1ccc(F)cc1F)C(=O)N2 [Compound N40],4.177 µM,100 µM,87.45 µM
N#Cc1nccc2c1CN(CC(=O)N[C@@H](CO)c1ccc(F)cc1F)C(=O)N2 [Compound N41],0.0762 µM,2.357 µM,1.12 µM
C[C@H](NC(=O)CN1C(=O)Nc2ccc(O)nc2C12CC2)c1ccc(F)cc1F [Compound N42],100 µM,100 µM,100.00 µM
O=C(CN1C(=O)Nc2cccnc2C12CC2)N[C@H](CO)c1ccc(F)cc1F [Compound N43],100 µM,100 µM,32.69 µM
O=C(CN1C(=O)Nc2cccnc2C12CC2)N[C@@H](CO)c1ccc(F)cc1F [Compound N44],0.5658 µM,18.96 µM,1.18 µM
C[C@H](NC(=O)[C@H](C)N1Cc2nc(C#N)ccc2NC1=O)c1ccc(F)cc1F [Compound N45],100 µM,100 µM,14.99 µM
C[C@H](NC(=O)[C@@H](C)N1Cc2nc(C#N)ccc2NC1=O)c1ccc(F)cc1F [Compound N46],100 µM,100 µM,100.00 µM
"Cc1c(F)cnc2c1CN(CC(=O)N[C@@H](C)c1ccc(F)cc1F)C(=O)N2 [Compound N57, N-[(1S)-1-(2,4-Difluorophenyl)ethyl]-2-{6-fluoro-5-methyl-2-oxo-1H,4H-pyrido[2,3-d]pyrimidin-3-yl}acetamide]",6.748 µM,100 µM,12.15 µM
"C[C@H](NC(=O)CN1Cc2nc(C#N)ccc2NC1=O)c1ccc(F)cc1F [Compound N60, (S)-2-(6-Cyano-2-oxo-1,4-dihydropyrido[3,2-d]pyrimidin-3(2H)-yl)-N-(1-(2,4-difluorophenyl)ethyl)acetamide]",1.385 µM,81.4 µM,1.15 µM
"C[C@H](NC(=O)CN1Cc2cc(F)cnc2NC1=O)c1ccc(F)cc1F [Compound N71, N-[(1S)-1-(2,4-Difluorophenyl)ethyl]-2-{6-fluoro-2-oxo-1H,4H-pyrido[2,3-d]pyrimidin-3-yl}acetamide]",2.804 µM,100 µM,36.26 µM

# Reference: US12509431B2, “1,4-dihydroquinazolinone compounds and uses thereof” (Edgewise Therapeutics, Inc., priority 2022, dated 2025)
